Measurements from ChEMBL document CHEMBL1629580, “Sec- and Tat-dependent translocation of beta-lactamases across the Escherichia coli inner membrane” (2009).
In brackets after ≈: the same amount, converted by molar mass.

System: Escherichia coli
Assay: Antimicrobial activity against Escherichia coli CU164A harboring empty plasmid by liquid microdilution method
Assay type: functional

Work on CCN1CCN(C(=O)N[C@@H](C(=O)N[C@@H]2C(=O)N3[C@@H]2SC(C)(C)[C@@H]3C(=O)O)c2ccccc2)C(=O)C1=O [PIPERACILLIN] yielded an MIC of 2 µg/mL (≈ 3.86 µM).

System: Escherichia coli
Assay: Antimicrobial activity against translocase tatC-deficient Escherichia coli B1LK0A expressing beta-lactamase TEM-1 by liquid microdilution method
Assay type: functional

Going from CO/N=C(\C(=O)N[C@@H]1C(=O)N2C(C(=O)O)=C(COC(C)=O)CS[C@H]12)c1csc(N)n1 [CEFOTAXIME] to CCN1CCN(C(=O)N[C@@H](C(=O)N[C@@H]2C(=O)N3[C@@H]2SC(C)(C)[C@@H]3C(=O)O)c2ccccc2)C(=O)C1=O [PIPERACILLIN], the MIC rises from no more than 0.06 µg/mL to 128 µg/mL (≈ 247 µM).

System: Escherichia coli
Assay: Antimicrobial activity against Escherichia coli CU164A harboring beta-lactamase L2 by liquid microdilution method

Going from CO/N=C(\C(=O)N[C@@H]1C(=O)N2C(C(=O)O)=C(COC(C)=O)CS[C@H]12)c1csc(N)n1 [CEFOTAXIME] to CCN1CCN(C(=O)N[C@@H](C(=O)N[C@@H]2C(=O)N3[C@@H]2SC(C)(C)[C@@H]3C(=O)O)c2ccccc2)C(=O)C1=O [PIPERACILLIN], the MIC rises from 2 µg/mL (≈ 4.39 µM) to 128 µg/mL (≈ 247 µM) (64-fold).

System: Escherichia coli
Assay: Antimicrobial activity against Escherichia coli CU164A harboring beta-lactamase L1 by liquid microdilution method
Assay type: functional

First: CO/N=C(\C(=O)N[C@@H]1C(=O)N2C(C(=O)O)=C(COC(C)=O)CS[C@H]12)c1csc(N)n1 [CEFOTAXIME]
Second: CCN1CCN(C(=O)N[C@@H](C(=O)N[C@@H]2C(=O)N3[C@@H]2SC(C)(C)[C@@H]3C(=O)O)c2ccccc2)C(=O)C1=O [PIPERACILLIN]
The MIC of the first is 32-fold lower: 1 µg/mL (≈ 2.2 µM) for the first, 32 µg/mL (≈ 61.8 µM) for the second.

System: Escherichia coli
Assay: Antimicrobial activity against Escherichia coli MC4100A harboring beta-lactamase L1 by liquid microdilution method
Assay type: functional

First: CO/N=C(\C(=O)N[C@@H]1C(=O)N2C(C(=O)O)=C(COC(C)=O)CS[C@H]12)c1csc(N)n1 [CEFOTAXIME]
Second: CCN1CCN(C(=O)N[C@@H](C(=O)N[C@@H]2C(=O)N3[C@@H]2SC(C)(C)[C@@H]3C(=O)O)c2ccccc2)C(=O)C1=O [PIPERACILLIN]
The MIC of the first is 64-fold lower: 1 µg/mL (≈ 2.2 µM) for the first, 64 µg/mL (≈ 124 µM) for the second.

System: Escherichia coli
Assay: Antimicrobial activity against mreB-deficient Escherichia coli YLS-3 expressing beta-lactamase TEM-1 by liquid microdilution method
Assay type: functional

Compared with CO/N=C(\C(=O)N[C@@H]1C(=O)N2C(C(=O)O)=C(COC(C)=O)CS[C@H]12)c1csc(N)n1 [CEFOTAXIME], CCN1CCN(C(=O)N[C@@H](C(=O)N[C@@H]2C(=O)N3[C@@H]2SC(C)(C)[C@@H]3C(=O)O)c2ccccc2)C(=O)C1=O [PIPERACILLIN] is higher in MIC: no more than 0.06 µg/mL for the first, 32 µg/mL (≈ 61.8 µM) for the second.

System: Escherichia coli
Assay: Antimicrobial activity against mreB-deficient Escherichia coli YLS-3 harboring beta-lactamase L2 by liquid microdilution method
Assay type: functional

First: CO/N=C(\C(=O)N[C@@H]1C(=O)N2C(C(=O)O)=C(COC(C)=O)CS[C@H]12)c1csc(N)n1 [CEFOTAXIME]
Second: CCN1CCN(C(=O)N[C@@H](C(=O)N[C@@H]2C(=O)N3[C@@H]2SC(C)(C)[C@@H]3C(=O)O)c2ccccc2)C(=O)C1=O [PIPERACILLIN]
The MIC of the first is 530-fold lower: 0.06 µg/mL (≈ 0.132 µM) for the first, 32 µg/mL (≈ 61.8 µM) for the second.

System: Escherichia coli
Assay: Antimicrobial activity against translocase tatC-deficient Escherichia coli B1LK0A harboring beta-lactamase CTX-M-14 by liquid microdilution method
Assay type: functional

Going from CO/N=C(\C(=O)N[C@@H]1C(=O)N2C(C(=O)O)=C(COC(C)=O)CS[C@H]12)c1csc(N)n1 [CEFOTAXIME] to CCN1CCN(C(=O)N[C@@H](C(=O)N[C@@H]2C(=O)N3[C@@H]2SC(C)(C)[C@@H]3C(=O)O)c2ccccc2)C(=O)C1=O [PIPERACILLIN], the MIC rises from 16 µg/mL (≈ 35.1 µM) to 512 µg/mL (≈ 989 µM) (32-fold).

System: Escherichia coli
Assay: Antimicrobial activity against Escherichia coli CU164A harboring beta-lactamase CTX-M-14 by liquid microdilution method
Assay type: functional

Compared with CO/N=C(\C(=O)N[C@@H]1C(=O)N2C(C(=O)O)=C(COC(C)=O)CS[C@H]12)c1csc(N)n1 [CEFOTAXIME], CCN1CCN(C(=O)N[C@@H](C(=O)N[C@@H]2C(=O)N3[C@@H]2SC(C)(C)[C@@H]3C(=O)O)c2ccccc2)C(=O)C1=O [PIPERACILLIN] is 32-fold higher in MIC: 16 µg/mL (≈ 35.1 µM) for the first, 512 µg/mL (≈ 989 µM) for the second.

System: Escherichia coli
Assay: Antimicrobial activity against Escherichia coli CU164A expressing beta-lactamase TEM-1 by liquid microdilution method
Assay type: functional

Compared with CO/N=C(\C(=O)N[C@@H]1C(=O)N2C(C(=O)O)=C(COC(C)=O)CS[C@H]12)c1csc(N)n1 [CEFOTAXIME], CCN1CCN(C(=O)N[C@@H](C(=O)N[C@@H]2C(=O)N3[C@@H]2SC(C)(C)[C@@H]3C(=O)O)c2ccccc2)C(=O)C1=O [PIPERACILLIN] is higher in MIC: no more than 0.06 µg/mL for the first, 256 µg/mL (≈ 495 µM) for the second.

System: Escherichia coli
Assay: Antimicrobial activity against translocase tatC-deficient Escherichia coli B1LK0A harboring beta-lactamase AmpC by liquid microdilution method

First: CO/N=C(\C(=O)N[C@@H]1C(=O)N2C(C(=O)O)=C(COC(C)=O)CS[C@H]12)c1csc(N)n1 [CEFOTAXIME]
Second: CCN1CCN(C(=O)N[C@@H](C(=O)N[C@@H]2C(=O)N3[C@@H]2SC(C)(C)[C@@H]3C(=O)O)c2ccccc2)C(=O)C1=O [PIPERACILLIN]
The MIC of the first is 64-fold lower: 0.5 µg/mL (≈ 1.1 µM) for the first, 32 µg/mL (≈ 61.8 µM) for the second.

System: Escherichia coli
Assay: Antimicrobial activity against translocase tatC-deficient Escherichia coli B1LK0A harboring beta-lactamase L2 by liquid microdilution method
Assay type: functional

CCN1CCN(C(=O)N[C@@H](C(=O)N[C@@H]2C(=O)N3[C@@H]2SC(C)(C)[C@@H]3C(=O)O)c2ccccc2)C(=O)C1=O [PIPERACILLIN] was tested, and the MIC was no more than 2 µg/mL.

System: Escherichia coli
Assay: Antimicrobial activity against Escherichia coli MC4100A harboring beta-lactamase L2 by liquid microdilution method

Going from CO/N=C(\C(=O)N[C@@H]1C(=O)N2C(C(=O)O)=C(COC(C)=O)CS[C@H]12)c1csc(N)n1 [CEFOTAXIME] to CCN1CCN(C(=O)N[C@@H](C(=O)N[C@@H]2C(=O)N3[C@@H]2SC(C)(C)[C@@H]3C(=O)O)c2ccccc2)C(=O)C1=O [PIPERACILLIN], the MIC rises from 2 µg/mL (≈ 4.39 µM) to 128 µg/mL (≈ 247 µM) (64-fold).

System: Escherichia coli
Assay: Antimicrobial activity against Escherichia coli MC4100A harboring beta-lactamase AmpC by liquid microdilution method
Assay type: functional

Going from CO/N=C(\C(=O)N[C@@H]1C(=O)N2C(C(=O)O)=C(COC(C)=O)CS[C@H]12)c1csc(N)n1 [CEFOTAXIME] to CCN1CCN(C(=O)N[C@@H](C(=O)N[C@@H]2C(=O)N3[C@@H]2SC(C)(C)[C@@H]3C(=O)O)c2ccccc2)C(=O)C1=O [PIPERACILLIN], the MIC rises from 0.5 µg/mL (≈ 1.1 µM) to 32 µg/mL (≈ 61.8 µM) (64-fold).

System: Escherichia coli
Assay: Antimicrobial activity against Escherichia coli MC4100A harboring beta-lactamase CTX-M-14 by liquid microdilution method
Assay type: functional

Compared with CO/N=C(\C(=O)N[C@@H]1C(=O)N2C(C(=O)O)=C(COC(C)=O)CS[C@H]12)c1csc(N)n1 [CEFOTAXIME], CCN1CCN(C(=O)N[C@@H](C(=O)N[C@@H]2C(=O)N3[C@@H]2SC(C)(C)[C@@H]3C(=O)O)c2ccccc2)C(=O)C1=O [PIPERACILLIN] is 32-fold higher in MIC: 16 µg/mL (≈ 35.1 µM) for the first, 512 µg/mL (≈ 989 µM) for the second.

System: Escherichia coli
Assay: Antimicrobial activity against translocase tatC-deficient Escherichia coli B1LK0A harboring empty plasmid by liquid microdilution method
Assay type: functional

With CCN1CCN(C(=O)N[C@@H](C(=O)N[C@@H]2C(=O)N3[C@@H]2SC(C)(C)[C@@H]3C(=O)O)c2ccccc2)C(=O)C1=O [PIPERACILLIN] the MIC was no more than 2 µg/mL.

System: Escherichia coli
Assay: Antimicrobial activity against mreB-deficient Escherichia coli YLS-3 harboring beta-lactamase L1 by liquid microdilution method

Going from CO/N=C(\C(=O)N[C@@H]1C(=O)N2C(C(=O)O)=C(COC(C)=O)CS[C@H]12)c1csc(N)n1 [CEFOTAXIME] to CCN1CCN(C(=O)N[C@@H](C(=O)N[C@@H]2C(=O)N3[C@@H]2SC(C)(C)[C@@H]3C(=O)O)c2ccccc2)C(=O)C1=O [PIPERACILLIN], the MIC rises from 0.06 µg/mL (≈ 0.132 µM) to 32 µg/mL (≈ 61.8 µM) (530-fold).

System: Escherichia coli
Assay: Antimicrobial activity against Escherichia coli MC4100A expressing beta-lactamase TEM-1 by liquid microdilution method
Assay type: functional

First: CO/N=C(\C(=O)N[C@@H]1C(=O)N2C(C(=O)O)=C(COC(C)=O)CS[C@H]12)c1csc(N)n1 [CEFOTAXIME]
Second: CCN1CCN(C(=O)N[C@@H](C(=O)N[C@@H]2C(=O)N3[C@@H]2SC(C)(C)[C@@H]3C(=O)O)c2ccccc2)C(=O)C1=O [PIPERACILLIN]
The MIC of the first is lower: no more than 0.06 µg/mL for the first, 512 µg/mL (≈ 989 µM) for the second.

System: Escherichia coli
Assay: Antimicrobial activity against Escherichia coli CU164A harboring beta-lactamase AmpC by liquid microdilution method

Going from CO/N=C(\C(=O)N[C@@H]1C(=O)N2C(C(=O)O)=C(COC(C)=O)CS[C@H]12)c1csc(N)n1 [CEFOTAXIME] to CCN1CCN(C(=O)N[C@@H](C(=O)N[C@@H]2C(=O)N3[C@@H]2SC(C)(C)[C@@H]3C(=O)O)c2ccccc2)C(=O)C1=O [PIPERACILLIN], the MIC rises from 0.5 µg/mL (≈ 1.1 µM) to 32 µg/mL (≈ 61.8 µM) (64-fold).

System: Escherichia coli
Assay: Antimicrobial activity against mreB-deficient Escherichia coli YLS-3 harboring beta-lactamase AmpC by liquid microdilution method

First: CO/N=C(\C(=O)N[C@@H]1C(=O)N2C(C(=O)O)=C(COC(C)=O)CS[C@H]12)c1csc(N)n1 [CEFOTAXIME]
Second: CCN1CCN(C(=O)N[C@@H](C(=O)N[C@@H]2C(=O)N3[C@@H]2SC(C)(C)[C@@H]3C(=O)O)c2ccccc2)C(=O)C1=O [PIPERACILLIN]
The MIC of the first is 130-fold lower: 0.12 µg/mL (≈ 0.263 µM) for the first, 16 µg/mL (≈ 30.9 µM) for the second.

System: Escherichia coli
Assay: Antimicrobial activity against Escherichia coli MC4100A harboring empty plasmid by liquid microdilution method
Assay type: functional

Work on CCN1CCN(C(=O)N[C@@H](C(=O)N[C@@H]2C(=O)N3[C@@H]2SC(C)(C)[C@@H]3C(=O)O)c2ccccc2)C(=O)C1=O [PIPERACILLIN] yielded an MIC of 2 µg/mL (≈ 3.86 µM).

System: Escherichia coli
Assay: Antimicrobial activity against translocase tatC-deficient Escherichia coli B1LK0A harboring beta-lactamase L1 by liquid microdilution method
Assay type: functional

Compared with CO/N=C(\C(=O)N[C@@H]1C(=O)N2C(C(=O)O)=C(COC(C)=O)CS[C@H]12)c1csc(N)n1 [CEFOTAXIME], CCN1CCN(C(=O)N[C@@H](C(=O)N[C@@H]2C(=O)N3[C@@H]2SC(C)(C)[C@@H]3C(=O)O)c2ccccc2)C(=O)C1=O [PIPERACILLIN] is 32-fold higher in MIC: 1 µg/mL (≈ 2.2 µM) for the first, 32 µg/mL (≈ 61.8 µM) for the second.

System: Escherichia coli
Assay: Antimicrobial activity against mreB-deficient Escherichia coli YLS-3 harboring empty plasmid by liquid microdilution method
Assay type: functional

Molecule CCN1CCN(C(=O)N[C@@H](C(=O)N[C@@H]2C(=O)N3[C@@H]2SC(C)(C)[C@@H]3C(=O)O)c2ccccc2)C(=O)C1=O [PIPERACILLIN] has an MIC of no more than 2 µg/mL.

System: Escherichia coli
Assay: Antimicrobial activity against mreB-deficient Escherichia coli YLS-3 harboring beta-lactamase CTX-M-14 by liquid microdilution method
Assay type: functional

Compared with CO/N=C(\C(=O)N[C@@H]1C(=O)N2C(C(=O)O)=C(COC(C)=O)CS[C@H]12)c1csc(N)n1 [CEFOTAXIME], CCN1CCN(C(=O)N[C@@H](C(=O)N[C@@H]2C(=O)N3[C@@H]2SC(C)(C)[C@@H]3C(=O)O)c2ccccc2)C(=O)C1=O [PIPERACILLIN] is 32-fold higher in MIC: 4 µg/mL (≈ 8.78 µM) for the first, 128 µg/mL (≈ 247 µM) for the second.
